According to publication PMC6677754, “In silico design and optimization of selective membranolytic anticancer peptides” (Scientific Reports, 2019):
Peptide text beside a SMILES is read from it.

Tests used:
[1] = test system: A549 lung adenocarcinoma cell line; assay: Cell viability assay (MTT); format: cell-based, human; conditions: Table S2; MTT, 24 h; mean ± sd; N = 2 independent measurements with six technical replicates each (Figs S6-S8); read-out: A549 EC50 /µM
In short: (§1)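 Viability by MTT: 10^4 cells/well exposed 24 h to 2-fold peptide dilutions from 100 μM in DMEM, then 1 h with 0.5 mg mL−1 MTT; absorbance at 540 nm relative to peptide-free medium as 100% survival. EC50 from a 3-parameter log-logistic fit.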

[2] = test system: MCF7 breast adenocarcinoma cell line; assay: Cell viability assay (MTT); format: cell-based, human; conditions: Table S2, 24 h, mean ± sd, N = 2 independent measurements with six technical replicates each (Figs S6-S8)
In short: as §1

[3] = test system: noncancer HDMEC primary cells (human dermal microvascular endothelial cells); assay: Cell viability assay (MTT); format: cell-based; conditions: Table S2; noncancer primary cells; MTT, 24 h; mean ± sd; N = 2 independent measurements with six technical replicates each (Figs S6-S8)
In short: as §1

human erythrocytes = assay: Hemolysis assay; format: cell-based; conditions: red cells of human, 1 h
In short: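 Washed human erythrocytes (5% v/v in PBS) were mixed with peptide plated as a 200–6.25 μM series, in triplicate, for 1 h at 37 °C. Released haemoglobin in the supernatant was read at 540 nm, scaled to 0.1% Triton X-100 (100%) and PBS (0%). HC50 came from a 3-parameter log-logistic fit.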

CC[C@H](C)[C@H](NC(=O)[C@H](CCCCN)NC(=O)[C@H](CCCCN)NC(=O)[C@H](CC(C)C)NC(=O)[C@H](CC(C)C)NC(=O)[C@@H](N)CCC(N)=O)C(=O)N[C@@H](CCCNC(=N)N)C(=O)N[C@H](C(=O)N[C@@H](Cc1c[nH]c2ccccc12)C(=O)N[C@@H](Cc1ccc(O)cc1)C(=O)N[C@@H](CCCNC(=N)N)C(=O)N[C@@H](CCCCN)C(=O)N[C@@H](C)C(=O)N[C@@H](Cc1c[nH]c2ccccc12)C(=O)N[C@@H](Cc1c[nH]cn1)C(=O)N[C@H](C(=O)N[C@@H](Cc1ccc(O)cc1)C(=O)NCC(=O)N[C@@H](CCCCN)C(=O)N[C@H](C(N)=O)C(C)C)C(C)C)[C@@H](C)O [Off2.2.9] (H-QLLKKIRTWYRKAWHVYGKV-NH2)
EC50 [1]: 28 ± 3 µM
EC50 [2]: 13 ± 1 µM
EC50 [3]: 21 ± 2 µM
Eryhtr. HC50 /µM (human erythrocytes): > 200 µM

CC[C@H](C)[C@H](NC(=O)[C@H](CCCCN)NC(=O)[C@@H]1CCCN1C(=O)[C@H](Cc1c[nH]c2ccccc12)NC(=O)[C@@H](NC(=O)[C@H](Cc1c[nH]cn1)NC(=O)[C@H](Cc1c[nH]c2ccccc12)NC(=O)[C@H](C)NC(=O)[C@H](CCCCN)NC(=O)[C@H](CCCCN)NC(=O)[C@@H](NC(=O)[C@H](Cc1c[nH]c2ccccc12)NC(=O)[C@@H](NC(=O)[C@H](Cc1c[nH]cn1)NC(=O)[C@H](CC(C)C)NC(=O)[C@H](CCC(N)=O)NC(=O)[C@H](CCCNC(=N)N)NC(=O)[C@@H](NC(=O)[C@H](CCCNC(=N)N)NC(=O)[C@@H](N)CCC(N)=O)[C@@H](C)CC)[C@@H](C)O)[C@@H](C)CC)[C@@H](C)CC)C(N)=O [Off2.10] (H-QRIRQLHTWIKKAWHIWPKI-NH2)
EC50 [1]: 40 ± 2 µM
EC50 [2]: 28.6 ± 0.1 µM
EC50 [3]: 39.7 ± 0.3 µM
Eryhtr. HC50 /µM (human erythrocytes): > 200 µM

CC[C@H](C)[C@H](NC(=O)[C@H](CCCCN)NC(=O)[C@H](CCCCN)NC(=O)[C@H](CC(C)C)NC(=O)[C@H](Cc1ccccc1)NC(=O)[C@H](CC(=O)O)NC(=O)[C@H](CCCCN)NC(=O)[C@H](Cc1ccccc1)NC(=O)[C@H](CCCCN)NC(=O)[C@H](CCCCN)NC(=O)[C@H](Cc1ccccc1)NC(=O)[C@@H](NC(=O)[C@@H](N)CCCCN)[C@@H](C)CC)C(=O)N[C@@H](Cc1ccccc1)C(=O)N[C@@H](CCC(N)=O)C(=O)N[C@@H](Cc1ccc(O)cc1)C(=O)N[C@@H](CC(C)C)C(=O)NCC(=O)N[C@@H](CCCCN)C(=O)N[C@H](C(N)=O)C(C)C [Off5] (H-KIFKKFKDFLKKIFQYLGKV-NH2)
EC50 [1]: 17.4 ± 0.1 µM
EC50 [2]: 12.4 ± 0.4 µM
EC50 [3]: 10.1 ± 0.2 µM
Eryhtr. HC50 /µM (human erythrocytes): 15 ± 2 µM

CC[C@H](C)[C@H](NC(=O)[C@H](CC(C)C)NC(=O)[C@@H](N)CCCCN)C(=O)N[C@@H](Cc1c[nH]cn1)C(=O)N[C@@H](CCCNC(=N)N)C(=O)N[C@@H](CC(C)C)C(=O)N[C@@H](CCCCN)C(=O)N[C@H](C(=O)N[C@H](C(=O)N[C@@H](Cc1ccccc1)C(=O)N[C@@H](CCCCN)C(=O)N[C@@H](CCCCN)C(=O)N[C@H](C(=O)N[C@@H](Cc1c[nH]c2ccccc12)C(=O)N[C@@H](Cc1c[nH]cn1)C(=O)N[C@@H](Cc1ccccc1)C(=O)N[C@@H](CC(C)C)C(=O)NCC(=O)N[C@@H](Cc1c[nH]cn1)C(=O)N[C@@H](CC(C)C)C(N)=O)C(C)C)C(C)C)[C@@H](C)O [Off9] (H-KLIHRLKTVFKKVWHFLGHL-NH2)
EC50 [1]: 22 ± 4 µM
EC50 [2]: 18.9 ± 0.2 µM
EC50 [3]: 22 ± 3 µM
Eryhtr. HC50 /µM (human erythrocytes): 41 ± 3 µM

CC[C@H](C)[C@H](NC(=O)[C@H](CCCCN)NC(=O)CNC(=O)[C@@H](NC(=O)[C@H](Cc1ccc(O)cc1)NC(=O)[C@H](Cc1c[nH]cn1)NC(=O)[C@H](Cc1c[nH]c2ccccc12)NC(=O)[C@@H](NC(=O)[C@H](CCCCN)NC(=O)[C@H](CCCCN)NC(=O)[C@H](CC(C)C)NC(=O)[C@@H](NC(=O)[C@H](Cc1c[nH]cn1)NC(=O)[C@H](CCCNC(=N)N)NC(=O)[C@H](Cc1ccccc1)NC(=O)[C@H](CCCCN)NC(=O)[C@H](CCCCN)NC(=O)[C@H](Cc1ccc(O)cc1)NC(=O)[C@H](CC(C)C)NC(=O)[C@@H](N)CCCCN)[C@@H](C)CC)C(C)C)C(C)C)C(N)=O [Off3] (H-KLYKKFRHILKKVWHYVGKI-NH2)
EC50 [1]: 14 ± 3 µM
EC50 [2]: 10 ± 1 µM
EC50 [3]: 10 ± 3 µM
Eryhtr. HC50 /µM (human erythrocytes): 29 ± 3 µM

CC[C@H](C)[C@H](NC(=O)[C@H](CC(C)C)NC(=O)[C@H](CCCCN)NC(=O)[C@H](Cc1ccccc1)NC(=O)[C@@H](NC(=O)[C@H](CCCCN)NC(=O)[C@H](CCCCN)NC(=O)[C@H](Cc1ccccc1)NC(=O)[C@H](Cc1c[nH]c2ccccc12)NC(=O)[C@@H](NC(=O)[C@H](CCCCN)NC(=O)[C@H](CC(C)C)NC(=O)[C@H](Cc1c[nH]cn1)NC(=O)[C@H](CCCNC(=N)N)NC(=O)[C@@H](NC(=O)[C@H](Cc1ccc(O)cc1)NC(=O)[C@@H](N)CCCCN)[C@@H](C)CC)[C@@H](C)O)C(C)C)C(=O)NCC(=O)N[C@@H](CCC(=O)O)C(=O)N[C@H](C(N)=O)C(C)C [Off4] (H-KYIRHLKTWFKKVFKLIGEV-NH2)
EC50 [1]: 15 ± 0.1 µM
EC50 [2]: 11 ± 2 µM
EC50 [3]: 7.1 ± 0.1 µM
Eryhtr. HC50 /µM (human erythrocytes): 20 ± 3 µM
